According to patent US11318141B2, “Methods and compositions related to STK1-targeted small molecules as antibiotic resistance breakers” (Ohio State Innovation Foundation, priority 2017, dated 2022):

Assays:
[1] = system: S. aureus STK1 / STKK1; experiment: Solid-phase ATP affinity chromatography, elution of bound kinase by inhibitor, Western blot; format: binding
Description: (§1) An overnight culture of S. aureus MW2 strain was centrifuged, and the resulting bacterial pellet was resuspended in lysostaphin digestion buffer (50 mM Tris/HCl buffer, pH 7.5, containing 5 μg/ml DNAse/RNAse and protease inhibitor cocktail) in 1/10 the volume of the original culture volume. The latter was then subjected to lysostaphin treatment (15 U/ml). The lysostaphin digest was sonicated (5 sec pulse at every 10 sec for 10 min at 50% of 130 W, […]), and the debris free whole cell lysate was obtained after centrifugation (10.000×g, 10 min, 4° C.). […] The column was then washed with ten column volumes of binding buffer. Subsequently, the bound proteins were eluted with the 10-column volume of buffer containing 50 μM Inh-2 and Inh2-B1. S. aureus crude lysate, the last fraction of the column washing step, and eluted fractions were resolved by SDS-PAGE and electroblotted onto a PVDF membrane. […] A similar experiment was performed using S. pyogenes whole cell lysates obtained from phage lysin-digested S. pyogenes M1T1 strain using the anti-SP-STK antibody as described previously using to determine the specificity of the inhibitor for S. aureus STK1.

[2] = system: S. pyogenes SP-STK / SP-STKK; experiment: as above; format: binding; conditions: purified recombinant protein
Description: as §1

[3] = system: S. pyogenes SP-STK; experiment: In vitro autophosphorylation / kinase activity of SP-STK; format: biochemical
[4] = Tolerability in mice treated with compound only; format: in vivo, CD-1 mice; conditions: 5 mg/kg i.p., ten-day observation
Description: The virulence potential of the wild-type S. aureus MW2 wild-type and corresponding MW2ΔSTK1 and MW2ΔSTP1 mutants was assessed using the mouse-septicemia model. CD-1 mice (5 weeks old, 20-22 g. Charles River Laboratories, ten female mice/group and housed in a group of 5 mice/cage) were lightly anesthetized with isoflurane and injected retro-orbitally with the S. aureus MW2 or isogenic MW2Δstk1 mutant (4×10^8 CFU/0.1 ml of PBS). […] For therapeutic studies, the animals were first challenged with MW2-WT strain as described above and subsequently administered with antibiotic and/or small molecule compounds. The latter was started 4 h after the challenge and subsequently 12 h apart for 4 days post infection. Thus, Inh2-B1 (5 mg/kg body weight in 0.3 ml vehicle buffer), Ceftriaxone (10 and 25 mg/kg body weight in 0.3 ml vehicle buffer). […] Data were combined, and percentage survival in each group was statistically evaluated by the Log-Rank test (Kaplan-Meier) using the GraphPad Prism 6 software. […] On Day 3 P.I., 3-6 mice from different groups receiving treatment with a single antibiotic or combination therapy were euthanized and sacrificed, and kidneys were […] for determining the bacterial load, which was determined by counting the colony forming units in the homogenized tissue in sterile PBS buffer.

[5] = system: S. aureus MW2ΔSTP1 biofilms; experiment: Biofilm formation, crystal violet stain method; format: cell-based, Staphylococcus aureus; conditions: 25 μM
Description: (§2) The ability to form biofilms by S. aureus MW2 strain in the absence and presence of Inh2-B1 was determined using the crystal violet stain method. Briefly, the assay was carried out in 24-well tissue culture plates in a final volume of 500 μl of TSB broth with or without Inh2-B1 (25 μM). The culture plates were then seeded with 1:1000 dilution of the freshly grown S. aureus cultures to late log phase (O.D600=0.8) and further incubated for 48 h. At the end of incubation, the culture medium from each well was carefully removed and stained with 1% Crystal violet for 5 min. The unbound stain was then removed by repeated washings with distilled water and air dried. The stained biofilms were then extracted and dissolved in 500 μl 100% of isopropanol. Aliquots of fully suspended biofilms (100 μl/well) in isopropanol from each well were spectrophotometrically (λ=550 nm) analyzed using a microtiter plate reader (Molecular Devices). The test samples were analyzed after subtracting the background values obtained from wells containing an only medium. All results were obtained with three independent cultures each in three wells. In another set of experiments. Inh2-B1 (25 μM) was added to the 48 h-grown established biofilms of S. aureus MW2 to determine the impact of Inh2-B1 on the preformed biofilms and its ability to disrupt or further formation of biofilms. For this, old medium was carefully removed to allow the minimal loss of the loosely attached apical part of the preformed biofilms and replace with 2 ml of fresh TSB medium with or without 25 μM Inh2-B1 inhibitor and incubated further for 48 h at 37° C. Subsequently, the biofilm formation or its disruption was quantitatively estimated as described above and statistically evaluated.

[6] = system: S. aureus MW2 wild-type biofilms; experiment: Biofilm formation, crystal violet stain method; format: cell-based, Staphylococcus aureus; conditions: 25 μM
Description: as §2

[7] = system: S. aureus MW2; experiment: Broth dilution susceptibility / growth inhibition assay, Muller Hinton broth; format: cell-based, Staphylococcus aureus; conditions: growth inhibition of S. aureus MW2
Description: Subsequently, the susceptibility of S. aureus MW2 strain to Ceftriaxone, Cefotaxime, Inh2, and Inh2-B1 was confirmed by the CLSI recommended serial dilution method using Muller Hinton broth. Minimum bactericidal activity (MBC) was measured using Muller-Hinton agar. Changes in the MBC of Ceftriaxone/Cefotaxime in the presence of serially diluted Inh2-B1 was determined in two steps. Initial screening was carried out using the Checkerboard method using Muller-Hinton agar (FIG. 15). […] Subsequent time to kill assays were carried out using 50 μM Inh2-B1 and Ceftriaxone. Cefotaxime (1 μg/ml) in a final volume of 250 μl using a sterile 96-well (U-bottom) microtiter plate over a period of 16 h at 37° C. under constant rotation (120 rpm). Optical density and corresponding CFU counts were measured at every two-hour interval up to 8 hours with a final overnight reading at the end of incubation period. CFU counts were measured using appropriate dilution of 10 μl of properly mixed samples at each time interval. All experiments were performed in three biological replicates and the statistical analysis of the results obtained at each time point was carried out by the non-parametric t-test with Welch's correction using GraphPad Prism 6 software.

[8] = system: S. aureus MW2-WT; experiment: S. aureus mouse septicemia model, therapeutic study; format: in vivo, CD-1 mice
Description: The virulence potential of the wild-type S. aureus MW2 wild-type and corresponding MW2ΔSTK1 and MW2ΔSTP1 mutants was assessed using the mouse-septicemia model. CD-1 mice (5 weeks old, 20-22 g. Charles River Laboratories, ten female mice/group and housed in a group of 5 mice/cage) were lightly anesthetized with isoflurane and injected retro-orbitally with the S. aureus MW2 or isogenic MW2Δstk1 mutant (4×10^8 CFU/0.1 ml of PBS). […] For therapeutic studies, the animals were first challenged with MW2-WT strain as described above and subsequently administered with antibiotic and/or small molecule compounds. The latter was started 4 h after the challenge and subsequently 12 h apart for 4 days post infection. Thus, Inh2-B1 (5 mg/kg body weight in 0.3 ml vehicle buffer), Ceftriaxone (10 and 25 mg/kg body weight in 0.3 ml vehicle buffer). Cefotaxime (10 mg/kg body weight), combination of Ceftriaxone (10 mg and 25 mg/kg body weight in 0.3 ml vehicle buffer) or Cefotaxime (10 mg/kg body weight) with Inh2-B1 (5 mg/kg body weight in 0.3 ml vehicle buffer), or 0.3 ml of vehicle-buffer (50 mM Tris/HCl, pH 8.8, 1.67% [v/v] DMSO). Early removal and euthanasia criteria were applied to all experimental mice showing penultimate sign(s) of the unrecoverable stage of illness, including ruffled skin with a hunch back, loss of more than 20% of body mass as compared to unchallenged mice receiving mock treatment, dyspnea, and labored gasping. All experiments were performed twice. Data were combined, and percentage survival in each group was statistically evaluated by the Log-Rank test (Kaplan-Meier) using the GraphPad Prism 6 software. P<0.05 was treated as a significant difference. On Day 3 P.I., 3-6 mice from different groups receiving treatment with a single antibiotic or combination therapy were euthanized and sacrificed, and kidneys were […] for determining the bacterial load, which was determined by counting the colony forming units in the homogenized tissue in sterile PBS buffer.

[9] = Inh2-B1 5 mg/kg plus Cefotaxime 10 mg/kg

Compound: COC(=O)c1ccc2c(=O)[nH]c3c(C(=O)Nc4ccccc4)sc(=S)n3c2c1 [Inh2-B1, Methyl 5-oxo-3-(phenylcarbamoyl)-1-thioxo-4,5dihydro[1,3]thiazolo[3,4-a]quinazoline-8-carboxylate]
- elution of STK1 bound to ATP-column, whole cell lysate of S. aureus MW2 ([1]; eluted with 50 μM inhibitor, anti-STK1 immunoblot): presence of STK1
- elution of purified recombinant S. aureus STKK1 from ATP-column ([1]; purified recombinant protein): could elute only the S. aureus STKK1 protein
- elution of purified recombinant S. pyogenes SP-STKK from ATP-column [2]: not S. pyogenes SP-STKK protein
- inhibition of the kinase activity of SP-STK of S. pyogenes [3]: did not inhibit the kinase activity
- signs of illness in mice treated with only the compound [4]: no morbid signs of illness
- survival of mice treated with only the compound [4]: survived all throughout the observation period
- biofilm formation in the presence of Inh2-B1 ([5]; 48 h): significantly decreased formation of biofilms
- effect on preformed biofilms ([5]; further 48 h): significant reduction in biofilm formation
- biofilm formation in the presence of Inh2-B1 ([6]; 48 h): significantly decreased formation of biofilms
- effect on preformed biofilms ([6]; further 48 h): significant reduction in biofilm formation
- concentration at which S. aureus MW2 still grows [7]: > 50 µM
- number of survived animals at the end of 10 days, Cefotaxime combination compared with Ceftriaxone combination [8, 9]: significantly low
- survival of mice, combination therapy with Cefotaxime (Inh2-B1+CT) [8, 9]: significantly prolonged the survival of mice
- survival, combination therapy with Ceftriaxone ([8]; Inh2-B1 5 mg/kg plus Ceftriaxone 10 or 25 mg/kg i.p., ten days): 60%
- S. aureus MW2 burden in kidneys ([8]; day 3 P.I., combined therapy (Inh2-B1 with Ceftriaxone or Cefotaxime) vs single or no therapy): significantly low
